Converted amounts (≈) assume the structure as drawn.
Columns and labels:
[1] = Metabolic stability in rat intestinal microsomes assessed as compound remaining after 60 mins in absence of NADPH/UDPGA; assay type: ADME, Intestine, Microsome; conditions: for remaining at 1 h: intestinal microsomes, read-out: Stability; for Stability: microsomes, 1 h
[2] = Metabolic stability in rat intestinal microsomes assessed as compound remaining after 60 mins in presence of NADPH; assay type: ADME, Intestine, Microsome; conditions: read-out: Stability
[3] = Metabolic stability in rat intestinal microsomes assessed as compound remaining after 60 mins in presence of UDPGA; assay type: ADME, Intestine, Microsome; conditions: read-out: Stability
[4] = Metabolic stability in rat intestinal microsomes assessed as compound remaining after 60 mins in presence of NADPH/UDPGA; assay type: ADME, Intestine, Microsome; conditions: for remaining at 1 h: intestinal microsomes, read-out: Stability; for Stability: microsomes, 1 h
[5] = molecular target: Serine/threonine-protein kinase pim-1 (Homo sapiens, UniProt P11309); assay: Inhibition of PIM1 (unknown origin) using 5FAM-ARKRRRHPSGPPTA as substrate after 90 mins in presence of ATP by caliper microfluidic mobility shift assay
Chain of Serine/threonine-protein kinase pim-1 (P11309 whole entry): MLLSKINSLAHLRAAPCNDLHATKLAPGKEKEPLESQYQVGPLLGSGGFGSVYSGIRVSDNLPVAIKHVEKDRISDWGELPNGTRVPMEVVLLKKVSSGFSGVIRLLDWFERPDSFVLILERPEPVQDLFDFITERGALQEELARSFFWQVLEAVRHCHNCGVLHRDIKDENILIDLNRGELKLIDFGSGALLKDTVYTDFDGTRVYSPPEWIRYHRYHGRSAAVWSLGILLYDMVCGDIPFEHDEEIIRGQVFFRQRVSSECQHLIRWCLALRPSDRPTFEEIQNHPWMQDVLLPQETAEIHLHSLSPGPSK

[6] = molecular target: Serine/threonine-protein kinase pim-2 (Homo sapiens, UniProt Q9P1W9); assay: Inhibition of PIM2 (unknown origin) using 5FAM-ARKRRRHPSGPPTA as substrate after 90 mins in presence of ATP by caliper microfluidic mobility shift assay
Chain of Serine/threonine-protein kinase pim-2 (Q9P1W9 whole entry): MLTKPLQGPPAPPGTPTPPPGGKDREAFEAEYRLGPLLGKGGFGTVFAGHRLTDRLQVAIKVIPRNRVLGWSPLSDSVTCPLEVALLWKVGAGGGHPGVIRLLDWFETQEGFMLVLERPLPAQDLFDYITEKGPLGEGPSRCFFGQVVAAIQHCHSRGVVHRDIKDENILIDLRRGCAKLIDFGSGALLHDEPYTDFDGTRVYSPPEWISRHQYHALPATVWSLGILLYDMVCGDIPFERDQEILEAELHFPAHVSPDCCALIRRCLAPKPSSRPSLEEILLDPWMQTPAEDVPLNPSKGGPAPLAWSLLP

[7] = molecular target: Serine/threonine-protein kinase pim-3 (Homo sapiens, UniProt Q86V86); assay: Inhibition of PIM3 (unknown origin) using 5FAM-ARKRRRHPSGPPTA as substrate after 90 mins in presence of ATP by caliper microfluidic mobility shift assay
[8] = Kinetic solubility of compound at pH 7.4; conditions: buffer
[9] = Clearance in rat liver microsomes; assay type: ADME, microsome
[10] = Clearance in rat hepatocytes; assay type: ADME, cell-based, Hepatocyte
[11] = Clearance in rat at 1 mg/kg, iv; assay type: ADME, organism-based; conditions: in vivo
[12] = Oral bioavailability in rat at 5 mg/kg; assay type: ADME, organism-based; conditions: in vivo
MM1.S = assay: Antiproliferative activity against human MM1S cells after 72 hrs by CellTiter-Glo assay; assay type: functional, cell-based
[13] = Metabolic stability in mouse intestinal microsomes assessed as compound remaining after 60 mins in absence of NADPH/UDPGA; assay type: ADME, Intestine, Microsome; conditions: 1 h
[14] = Metabolic stability in mouse intestinal microsomes assessed as compound remaining after 60 mins in presence of NADPH/UDPGA; assay type: ADME, Intestine, Microsome; conditions: 1 h
[15] = Metabolic stability in human intestinal microsomes assessed as compound remaining after 60 mins in absence of NADPH/UDPGA; assay type: ADME, Intestine, Microsome; conditions: 1 h
[16] = Metabolic stability in human intestinal microsomes assessed as compound remaining after 60 mins in presence of NADPH/UDPGA; assay type: ADME, Intestine, Microsome; conditions: 1 h
[17] = Metabolic stability in dog intestinal microsomes assessed as compound remaining after 60 mins in absence of NADPH/UDPGA; assay type: ADME, Canis lupus familiaris, Intestine, Microsome; conditions: 1 h
[18] = Metabolic stability in dog intestinal microsomes assessed as compound remaining after 60 mins in presence of NADPH/UDPGA; assay type: ADME, Canis lupus familiaris, Intestine, Microsome; conditions: 1 h
[19] = Metabolic stability in cynomolgus monkey intestinal microsomes assessed as compound remaining after 60 mins in absence of NADPH/UDPGA; assay type: ADME, Macaca fascicularis, Intestine, Microsome; conditions: 1 h
[20] = Metabolic stability in cynomolgus monkey intestinal microsomes assessed as compound remaining after 60 mins in presence of NADPH/UDPGA; assay type: ADME, Macaca fascicularis, Intestine, Microsome; conditions: 1 h
[21] = Apparent permeability across apical to basolateral side in MDCK cells; assay type: ADME, cell-based, Canis lupus familiaris; conditions: dog
[22] = Efflux ratio of apparent permeability in MDCK cells; conditions: dog

Structure (SMILES) | remaining at 1 h [1] | remaining at 1 h [2] | remaining at 1 h [3] | remaining at 1 h [4] | Ki [5] | Ki [6] | Ki [7] | further results
Cc1cncc(-c2cnc3cnn(-c4cccc(N5CCCNCC5)n4)c3c2)n1 | 87% | 100% | 79% | 76% | 0.8 nM | 13 nM | 0.4 nM | –
CN1CCN(c2cc3c(-c4cccc(N5CCNCC5)n4)n[nH]c3cn2)CC1=O | – | 120% | 56% | 42% | – | – | – | solubility kinetic [8]: 93.4 µM (≈ 36.7 µg/mL); CLhep predicted [9]: 31 mL/min/kg; CLhep predicted [10]: 18 mL/min/kg; Stability [1]: 130%; clearance [11]: 19 mL/min/kg; bioavailability [12]: 1.4%
CCn1cc(-c2cc3c(-c4cccc(N5CCOCC5)n4)n[nH]c3cn2)cn1 | 77% | 89% | 0.2% | 0.4% | – | 4 nM | 0.2 nM | –
Cc1cncc(-c2cc(F)c3cnn(-c4cccc(N5CCCNCC5)n4)c3c2)n1 | 108% | 107% | 103% | 98% | 450 nM | 7400 nM | 270 nM | –
Cn1nc(-c2cccc(N3CCC[C@H](N)C3)n2)c2cc(-c3cccnc3)ncc21 | 96% | 59% | 103% | 62% | 190 nM | 630 nM | 120 nM | –
Cc1cncc(-c2cc3c(-c4cccc(N5CCCNCC5)n4)nsc3cn2)n1 | 101% | 101% | 91% | 98% | 0.7 nM | 18 nM | 1 nM | –
Cc1cncc(-c2cc3c(cnn3-c3cccc(N4CCCNCC4)n3)nn2)n1 | 103% | 118% | 81% | 80% | 0.02 nM | 0.48 nM | 0.03 nM | –
Cc1cncc(-c2cc3c(cn2)cnn3-c2cccc([C@H]3CNCCC3(F)F)n2)n1 | – | – | – | – | 0.07 nM | 0.23 nM | – | CLhep predicted [9]: 42 mL/min/kg; CLhep predicted [10]: 31 mL/min/kg; clearance [11]: 40 mL/min/kg; bioavailability [12]: 57%; IC50 (MM1.S): 1.2 µM
c1cncc(-c2cc3c(-c4cccc(N5CCNCC5)n4)n[nH]c3cn2)c1 | – | – | – | – | – | – | – | Stability [1]: Stable; Stability [4]: Unstable; Stability [13]: Unstable; Stability [14]: Unstable; Stability [15]: Stable; Stability [16]: Stable; Stability [17]: Stable; Stability [18]: Stable; Stability [19]: Stable; Stability [20]: Stable
Cn1cc(-c2cc3c(-c4cccc(N5CCC[C@H](N)C5)n4)n[nH]c3cn2)cn1 | 87% | 86% | 67% | 69% | – | 0.2 nM | 0.02 nM | –
Cn1cc(-c2cc3c(-c4cccc(N5CCC[C@@H](N)C5)n4)n[nH]c3cn2)cn1 | – | – | – | – | – | – | – | Stability [1]: Stable; Stability [4]: Unstable; Stability [13]: Unstable; Stability [14]: Unstable; Stability [15]: Stable; Stability [16]: Stable; Stability [17]: Stable; Stability [18]: Stable; Stability [19]: Stable; Stability [20]: Stable
CCn1cc(-c2cc3c(-c4cccc(N5CCN(C)CC5)n4)n[nH]c3cn2)cn1 | 82% | 91% | 0.4% | 0.4% | 0.3 nM | 3 nM | 0.1 nM | –
Cc1ccc(-c2n[nH]c3cnc(-c4cccnc4)cc23)nc1N1CCC[C@H](N)C1 | 98% | 37% | 62% | 27% | – | – | – | solubility kinetic [8]: 81.2 µM (≈ 31.3 µg/mL); CLhep predicted [9]: 34 mL/min/kg; CLhep predicted [10]: 34 mL/min/kg; Papp A→B [21]: 3 ×10⁻⁶ cm/s; efflux ratio [22]: 1.8; clearance [11]: 21 mL/min/kg; bioavailability [12]: 0%
Cc1cncc(-c2cn3c(-c4cccc(N5CCCNCC5)n4)ncc3cn2)n1 | 106% | 111% | 69% | 66% | 0.5 nM | 16 nM | 0.4 nM | –
Cc1cncc(-c2cc3c(ccn3-c3cccc(N4CCCNCC4)n3)cn2)n1 | 98% | 100% | 104% | 102% | 0.5 nM | 9.6 nM | 0.8 nM | –
Cc1ccc(-c2n[nH]c3cnc(-c4cccnc4)cc23)nc1N1CC[C@@H](N)C1 | – | – | – | – | – | – | – | Stability [1]: Stable; Stability [4]: Unstable; Stability [13]: Unstable; Stability [14]: Unstable; Stability [15]: Stable; Stability [16]: Stable; Stability [17]: Stable; Stability [18]: Stable; Stability [19]: Stable; Stability [20]: Stable
Cn1cc(-c2cc3c(-c4cccc(N5CCC[C@H](N)C5)n4)nn(C)c3cn2)cn1 | 95% | 91% | 92% | 102% | 38 nM | 170 nM | 23 nM | –
Cc1cncc(-c2ccc3cnn(-c4cccc(N5CCCNCC5)n4)c3c2)n1 | 91% | 84% | 100% | 101% | 0.4 nM | 7.9 nM | 0.2 nM | –
N[C@H]1CCCN(c2cccc(-c3n[nH]c4cnc(-c5cccnc5)cc34)n2)C1 | 93% | 34% | 48% | 26% | 0.04 nM | 0.2 nM | 0.02 nM | –
Cc1cncc(-c2cc3c(cn2)cnn3-c2cccc(N3CCCNCC3)n2)n1 | 91% | 99% | 85% | 91% | – | – | – | CLhep predicted [9]: 32 mL/min/kg; CLhep predicted [10]: 27 mL/min/kg; clearance [11]: 28 mL/min/kg; bioavailability [12]: 42%; IC50 (MM1.S): 5 µM
c1cncc(-c2cc3c(-c4cccc(N5CCCNCC5)n4)n[nH]c3cn2)c1 | – | – | – | – | – | – | – | Stability [1]: Stable; Stability [4]: Unstable; Stability [13]: Unstable; Stability [14]: Unstable; Stability [15]: Stable; Stability [16]: Stable; Stability [17]: Stable; Stability [18]: Stable; Stability [19]: Stable; Stability [20]: Stable
